Measured values from PubChem BioAssay (NCI).
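Interpolation was linear, between the two tested concentrations surrounding the appropriate level; five concentrations were tested over 48 hours in 96-well plates. GI50 = concentration required for 50% inhibition of growth. Definition used: TGI = concentration required for complete inhibition of growth.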

Assays:
Experiment in all cases: NCI tumour cell line growth inhibition, 48 h
[1] = tested on: M14 melanoma
[2] = tested on: TK-10 renal
[3] = tested on: NCI-H226 lung
[4] = tested on: UACC-257 melanoma
[5] = tested on: MDA-MB-231 breast
[6] = tested on: HT29 colon
[7] = tested on: OVCAR-5 ovarian
[8] = tested on: CCRF-CEM leukemia
[9] = tested on: SNB-19 CNS
[10] = tested on: SNB-75 CNS
[11] = tested on: UO-31 renal
[12] = tested on: IGROV1 ovarian
[13] = tested on: U251 CNS
[14] = tested on: MDA-MB-435
[15] = tested on: COLO 205 colon
[16] = tested on: BT-549 breast
[17] = tested on: RPMI-8226 leukemia
[18] = tested on: OVCAR-8 ovarian
[19] = tested on: MOLT-4 leukemia
[20] = tested on: HCT-116 colon
[21] = tested on: ACHN renal
[22] = tested on: HOP-62 NSCLC
[23] = tested on: HL-60(TB) leukemia
[24] = tested on: LOX IMVI melanoma
[25] = tested on: MCF7 breast
[26] = tested on: HCC-2998 colon
[27] = tested on: K-562 leukemia
[28] = tested on: NCI-H460 lung
[29] = tested on: SK-MEL-5 melanoma
[30] = tested on: 786-0 renal
[31] = tested on: NCI/ADR-RES ovarian
[32] = tested on: SK-MEL-28 melanoma
[33] = tested on: NCI-H522 lung
[34] = tested on: OVCAR-3 ovarian
[35] = tested on: HOP-92 NSCLC
[36] = tested on: OVCAR-4 ovarian
[37] = tested on: SW-620 colon
[38] = tested on: HS 578T breast
[39] = tested on: SN12C renal
[40] = tested on: NCI-H23 lung
[41] = tested on: T-47D breast
[42] = tested on: MALME-3M melanoma
[43] = tested on: HCT-15 colon
[44] = tested on: RXF 393 renal
[45] = tested on: UACC-62 melanoma
[46] = tested on: SF-268 CNS
[47] = tested on: KM12 colon
[48] = tested on: SK-MEL-2 melanoma
[49] = tested on: A549 NSCLC
[50] = tested on: DU-145 prostate
[51] = tested on: EKVX NSCLC
[52] = tested on: CAKI-1 renal
[53] = tested on: SR leukemia
[54] = tested on: A498 renal
[55] = tested on: SF-539 CNS
[56] = tested on: SK-OV-3 ovarian

CN(CC(=O)Nc1nc2ccccc2[nH]1)S(=O)(=O)c1ccc(Cl)cc1
GI50 [1]: > 100 µM
TGI [1]: > 100 µM
GI50 [2]: > 100 µM
TGI [2]: > 100 µM
GI50 [3]: > 100 µM
TGI [3]: > 100 µM
GI50 [4]: > 100 µM
TGI [4]: > 100 µM
GI50 [5]: > 100 µM
TGI [5]: > 100 µM
GI50 [6]: > 100 µM
TGI [6]: > 100 µM
GI50 [7]: > 100 µM
TGI [7]: > 100 µM
GI50 [8]: > 100 µM
TGI [8]: > 100 µM
GI50 [9]: > 100 µM
TGI [9]: > 100 µM
GI50 [10]: 22.1 µM
TGI [10]: 78.8 µM
GI50 [11]: > 100 µM
TGI [11]: > 100 µM
GI50 [12]: 21 µM
TGI [12]: > 100 µM
GI50 [13]: > 100 µM
TGI [13]: > 100 µM
GI50 [14]: > 100 µM
TGI [14]: > 100 µM
GI50 [15]: > 100 µM
TGI [15]: > 100 µM
GI50 [16]: > 100 µM
TGI [16]: > 100 µM
GI50 [17]: > 100 µM
TGI [17]: > 100 µM
GI50 [18]: 95.2 µM
TGI [18]: > 100 µM
GI50 [19]: > 100 µM
TGI [19]: > 100 µM
GI50 [20]: > 100 µM
TGI [20]: > 100 µM
GI50 [21]: > 100 µM
TGI [21]: > 100 µM
GI50 [22]: > 100 µM
TGI [22]: > 100 µM
GI50 [23]: > 100 µM
TGI [23]: > 100 µM
GI50 [24]: > 100 µM
TGI [24]: > 100 µM
GI50 [25]: > 100 µM
TGI [25]: > 100 µM
GI50 [26]: > 100 µM
TGI [26]: > 100 µM
GI50 [27]: > 100 µM
TGI [27]: > 100 µM
GI50 [28]: > 100 µM
TGI [28]: > 100 µM
GI50 [29]: > 100 µM
TGI [29]: > 100 µM
GI50 [30]: > 100 µM
TGI [30]: > 100 µM
GI50 [31]: > 100 µM
TGI [31]: > 100 µM
GI50 [32]: > 100 µM
TGI [32]: > 100 µM
GI50 [33]: > 100 µM
TGI [33]: > 100 µM
GI50 [34]: > 100 µM
TGI [34]: > 100 µM
GI50 [35]: > 100 µM
TGI [35]: > 100 µM
GI50 [36]: > 100 µM
TGI [36]: > 100 µM
GI50 [37]: > 100 µM
TGI [37]: > 100 µM
GI50 [38]: 65 µM
TGI [38]: > 100 µM
GI50 [39]: > 100 µM
TGI [39]: > 100 µM
GI50 [40]: > 100 µM
TGI [40]: > 100 µM
GI50 [41]: > 100 µM
TGI [41]: > 100 µM
GI50 [42]: > 100 µM
TGI [42]: > 100 µM
GI50 [43]: > 100 µM
TGI [43]: > 100 µM
GI50 [44]: 13.4 µM
TGI [44]: 55.6 µM
GI50 [45]: > 100 µM
TGI [45]: > 100 µM
GI50 [46]: 43.2 µM
TGI [46]: > 100 µM
GI50 [47]: > 100 µM
TGI [47]: > 100 µM
GI50 [48]: 2.92 µM
TGI [48]: > 100 µM
GI50 [49]: > 100 µM
TGI [49]: > 100 µM
GI50 [50]: > 100 µM
TGI [50]: > 100 µM
GI50 [51]: 52.3 µM
TGI [51]: > 100 µM
GI50 [52]: > 100 µM
TGI [52]: > 100 µM
GI50 [53]: > 100 µM
TGI [53]: > 100 µM
GI50 [54]: > 100 µM
TGI [54]: > 100 µM
GI50 [55]: > 100 µM
TGI [55]: > 100 µM
GI50 [56]: > 100 µM
TGI [56]: > 100 µM
